Source: patent publication US9409891B2, “Solid forms of an antiviral compound” (Gilead Sciences, Inc., priority 2012, dated 2016)
Values after ≈ are worked out from the molar mass of the structure shown. “Also recorded” adds a separate entry of the source.

Columns and labels:
Assay type in all cases: physicochemical
[1] = Follow-up stable form screening (Form II stirred in solvents at about 22° C.); conditions: for 2-Week Form / 24 h Form: Form II stirred at about 22° C.; for solubility: about 22° C., Form II start
Protocol: In the follow-up stable form screening experiments, the starting materials were Form II. The solids were stirring in the solvents list below at about 22° C. in 2 ml vials.

[2] = Stable form competition study in ACN; conditions: Forms I through V added to high concentration solution of amorphous Compound I in ACN, stirred overnight
Protocol: To further verify the stability of Form II, competitive crystallization was conducted by adding Forms I through V into a high concentration solution of amorphous Compound I in ACN. […] The mother liquor obtained, which was saturated in terms of Form II, was used in another test in which other forms (Forms I, III, IV and V) were added.

[3] = Stability and hygroscopicity under ambient conditions
[4] = Seeding of Compound I solution in DIPE with Form VI; conditions: Compound I solution in DIPE seeded with Form VI; only Form II obtained
Protocol: In an attempt crystallize Form VI, the solution of Compound I in DIPE was seeded with Form VI. However, only Form II was obtained.

[5] = Hydrate screening, EtOH/water system; conditions: ethanol/water
Description: When the organic component used in the solvent mixture forms solvate with Compound I, potential hydrates may not show up in the slurry screen, as shown in the hydrate screening using ethanol/water mixtures (Table 4). Form IX is a new form found in this study.

[6] = Hydrate screening, ACN/water system
[7] = Form II stability in water at elevated temperature (slurry, XRPD)
Protocol: During formulation, Compound I may be wet granulated and dried at <50° C. A slurry of Form II in water was stirred at 48° C. (50° C. jacket) and was sampled periodically for XRPD analysis to determine Form I content.

[8] = water content 10%, water activity 0.510
[9] = water content 20%, water activity 0.654

Compound: CC1=CC[C@H](C(=O)N(c2cc(C#CC(C)(C)C)sc2C(=O)O)[C@H]2CC[C@](O)(CO[C@H]3CCOC3)CC2)CC1 (relative stereo) [Form II, 5-(3,3-dimethylbutyn-1-yl)-3-[(cis-4-hydroxy-4-{[(3S)-tetrahydrofuran-3-yloxy]methyl}cyclohexyl){[(1R)-4-methylcyclohex-3-en-1-yl]carbonyl}amino]thiophene-2-carboxylic acid]
- 2-Week Form ([1]; 2 Me-THF): solution
- 24 h Form ([1]; 2 Me-THF): solution
- solubility ([1]; 2 Me-THF, solution): >334 mg/mL
- solubility ([1]; ACN/water (50/50)): 18 mg/mL (≈ 33.1 mM)
- solubility ([1]; ACN): 6 mg/mL (≈ 11 mM)
- solubility ([1]; Acetone): 241 mg/mL (≈ 443 mM)
- 2-Week Form ([1]; DCM): solution
- 24 h Form ([1]; DCM): solution
- solubility ([1]; DCM, solution): >274 mg/mL
- solubility ([1]; Ethyl Acetate): 124 mg/mL (≈ 228 mM)
- solubility ([1]; Heptane): 0.05 mg/mL (≈ 0.092 mM)
- solubility ([1]; Isopropyl Acetate): 59 mg/mL (≈ 109 mM)
- solubility ([1]; MIBK): 116 mg/mL (≈ 213 mM)
- 2-Week Form ([1]; MeOH): solution
- 24 h Form ([1]; MeOH): solution
- solubility ([1]; MeOH, solution): >321 mg/mL
- solubility ([1]; Methyl t-butyl ether): 108 mg/mL (≈ 199 mM)
- 2-Week Form ([1]; THF): solution
- 24 h Form ([1]; THF): solution
- solubility ([1]; THF, solution): >346 mg/mL
- solubility ([1]; Toluene): 40 mg/mL (≈ 73.6 mM)
- 24 h Form ([1]; Water): II + I
- Stability of Form II in tested solvents (summary of Table 2) ([1]; stirred at about 22° C., up to 2 weeks): stable in most tested solvents except for alcohols, water, and MEK
- Form detected after competitive crystallization [2]: the only detected form
- Stability and hygroscopicity [3]: stable and non-hygroscopic
- Relative stability of forms [4]: more stable than Form VI
- Form at 2 weeks [5, 8]: solution
- Form at 90 hours [5, 8]: solution
- Form at 2 weeks [5, 9]: solution
- Form at 90 hours [5, 9]: solution
- Form at 90 hours ([5]; water content 50%, water activity 0.806): III + small
- Equivalent RH up to which Form II is stable ([6]; 22° C.): ≤ 86.3 % RH
- Water activity up to which Form II is stable ([6]; 22° C.): up to 0.863
- Form at 2 weeks ([6]; water content 30%, water activity 0.896, 22° C.): VIII
- Form at 2 weeks ([6]; water content 32%, water activity 0.9, 22° C.): VIII
- Form at 2 weeks ([6]; water content 40%, water activity 0.914, 22° C.): VIII
- Form at 2 weeks ([6]; water content 50%, water activity 0.926, 22° C.): VIII
- Form at 24 h or 90 h ([6]; water content 50%, water activity 0.926, 90 h, 22° C.): II + small
- Form at 2 weeks ([6]; water content 60%, water activity 0.936, 22° C.): VIII
- Form at 24 h or 90 h ([6]; water content 60%, water activity 0.936, 90 h, 22° C.): VIII + small
- Form at 2 weeks ([6]; water content 70%, water activity 0.943, 22° C.): VIII
- Form at 2 weeks ([6]; water content 80%, water activity 0.949, 22° C.): II + VIII
- Form at 24 h or 90 h ([6]; water content 80.9%, water activity 0.950, 24 h, 22° C.): I + II
- Form at 24 h or 90 h ([6]; water content 100%, water activity 1, 24 h, 22° C.): I + II
- Form conversion in water ([7]; Form II in water at 48° C.): slowly converted to Form I; also recorded: converts slowly to Form I
- Form I content by XRPD ([7]; Form II slurry in water, 48° C. (50° C. jacket), 6 hour point): not detected
- Form by XRPD ([7]; Form II slurry in water, 48° C., after 30 hours): Form I became the dominant form
